This is an account of results in PubChem BioAssay (NCI).

The structures appear in SMILES notation.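 48-hour exposure; five concentrations; linearly interpolated endpoints. Here, GI50 denotes the concentration required for 50% inhibition of growth. TGI: total growth inhibition.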 Bounds are passed on as bounds.

Test systems include HCT-116 colon; KM12 colon; SNB-75 CNS; DU-145 prostate; CCRF-CEM leukemia; HT29 colon; UO-31 renal; SNB-19 CNS; K-562 leukemia; HCT-15 colon.
What all share (assay): NCI-60 cell line screen, 48 h

For `Cc1ncc(C(=O)Nc2ccc(CN3CCN(C)CC3)c(C(F)(F)F)c2)cc1C#Cc1cnc(N)cc1C#N`, the GI50 in the assay with HCT-116 colon is 0.182 µM; in the assay on KM12 colon, 0.00758 µM; in the assay with SNB-75 CNS, 1.21 µM; in the assay on DU-145 prostate, 0.278 µM; in the assay on CCRF-CEM leukemia, 0.549 µM; with HT29 colon it was 0.0481 µM. Besides, the GI50 in the assay with UO-31 renal was 0.307 µM; in the assay with SNB-19 CNS, 2.37 µM; in the assay on K-562 leukemia it was 0.00167 µM; in the assay on HCT-15 colon, 0.548 µM. For the same compound, the TGI in the assay with HCT-116 colon worked out at 2.92 µM; in the assay on KM12 colon, 1.98 µM; in the assay on SNB-75 CNS it was 3.44 µM; in the assay with DU-145 prostate it was 2.75 µM; with CCRF-CEM leukemia, 3.2 µM; in the assay on HT29 colon, 2.38 µM. In addition, the TGI was 1.33 µM with UO-31 renal, 4.67 µM in the assay with SNB-19 CNS, 3.21 µM with K-562 leukemia and 2.71 µM with HCT-15 colon.
On to `CCOC(=O)c1c2c(n3ccccc13)C(=O)c1ncccc1C2=O`, for which the GI50 with HCT-116 colon was 0.0424 µM; in the assay with KM12 colon it was 0.27 µM; in the assay on SNB-75 CNS, 0.818 µM; in the assay with DU-145 prostate, 0.0466 µM; with CCRF-CEM leukemia, 3.06 µM; with HT29 colon it was 1.63 µM. Further, the GI50 with UO-31 renal was 0.0338 µM; in the assay with SNB-19 CNS, 0.0587 µM; in the assay with K-562 leukemia it was 0.0745 µM; in the assay on HCT-15 colon, 0.024 µM. Also, the TGI in the assay on HCT-116 colon is 2.33 µM; in the assay with KM12 colon it was 75.9 µM; with SNB-75 CNS, 13 µM; with DU-145 prostate, 5.31 µM; in the assay with CCRF-CEM leukemia, > 100 µM; in the assay on HT29 colon it was 5.68 µM. Besides, the TGI was 3.79 µM in the assay with UO-31 renal, 13.7 µM in the assay with SNB-19 CNS, > 100 µM in the assay with K-562 leukemia and 12.8 µM in the assay with HCT-15 colon.
With `CC(C)CC(NC(=O)OC(C)(C)C)C(=O)Nc1ccc(Nc2nc(F)nc(-c3c4ccccc4cn3C)n2)cc1` (centres undefined), the TGI in the assay with HCT-116 colon was > 100 µM; in the assay on KM12 colon, 42.3 µM; in the assay on SNB-75 CNS it was > 100 µM; with DU-145 prostate, 39.7 µM; with CCRF-CEM leukemia, > 100 µM; in the assay with HT29 colon it was 54.9 µM. The TGI in the assay with UO-31 renal, in the assay on SNB-19 CNS, with K-562 leukemia and with HCT-15 colon was > 100 µM throughout.
As for `Cc1cnc(C(=O)NNc2nc3sc4c(c3c(=O)n2C)C(C)CCC4)cn1` (centres undefined), the GI50 was 0.26 µM in the assay on HCT-116 colon; 0.362 µM in the assay on KM12 colon; 0.56 µM with SNB-75 CNS; 0.458 µM with DU-145 prostate; 0.245 µM with CCRF-CEM leukemia; 0.788 µM in the assay with HT29 colon. For the same compound, the GI50 with UO-31 renal was 0.322 µM; in the assay on SNB-19 CNS it was 0.425 µM; in the assay with K-562 leukemia it was 0.433 µM; in the assay on HCT-15 colon, 0.268 µM. In addition, the TGI was 7.06 µM in the assay on HCT-116 colon; 2.16 µM in the assay with KM12 colon; 5.78 µM with SNB-75 CNS; 4.15 µM in the assay on DU-145 prostate; 6.19 µM in the assay with HT29 colon; 1.86 µM with UO-31 renal. Moreover, the TGI is 5.45 µM in the assay on SNB-19 CNS, > 100 µM with K-562 leukemia and 11.8 µM in the assay on HCT-15 colon.
As to `Cc1cnc(C(=O)Nc2nc3ccc(S(=O)(=O)Nc4ccc(C5(C(F)(F)F)CC5)cc4)cc3[nH]2)cn1`, the GI50 in the assay on HCT-116 colon was 0.452 µM; with KM12 colon, 0.309 µM; in the assay on SNB-75 CNS it was 0.183 µM; in the assay with DU-145 prostate, 0.357 µM; with CCRF-CEM leukemia, 0.379 µM; with HT29 colon it was 0.364 µM. Moreover, the GI50 with UO-31 renal is 0.481 µM; in the assay with SNB-19 CNS it was 0.553 µM; in the assay on K-562 leukemia, 0.216 µM; with HCT-15 colon, 0.205 µM. Besides, the TGI in the assay on HCT-116 colon was 10.5 µM; in the assay with KM12 colon, 13 µM; with SNB-75 CNS it was 0.786 µM; in the assay with DU-145 prostate, 2.23 µM; with CCRF-CEM leukemia, 22.8 µM; with HT29 colon, 10.9 µM. In addition, the TGI in the assay on UO-31 renal turned out to be 6.2 µM; with SNB-19 CNS, 13.3 µM; with K-562 leukemia, 12.7 µM; in the assay on HCT-15 colon, 5.09 µM.
Consider `CN(C)c1ccc(/C=C/c2cc[n+](C)c(/C=C/c3ccc(N(C)C)cc3)c2)cc1`, for which the GI50 in the assay on HCT-116 colon is 0.278 µM; with KM12 colon it was 0.33 µM; in the assay on SNB-75 CNS, 0.253 µM; in the assay with DU-145 prostate, 0.398 µM; with CCRF-CEM leukemia, 0.248 µM; in the assay on HT29 colon it was 0.274 µM. Moreover, the GI50 in the assay on UO-31 renal is 1.81 µM; in the assay with SNB-19 CNS it was 0.322 µM; with K-562 leukemia, 0.163 µM; in the assay with HCT-15 colon it was 0.904 µM. Besides, the TGI in the assay with HCT-116 colon is 1.24 µM; with KM12 colon, 1.42 µM; in the assay with SNB-75 CNS, 2.33 µM; in the assay with DU-145 prostate, 11 µM; with CCRF-CEM leukemia, 3.78 µM; in the assay on HT29 colon, 2.65 µM. The TGI in the assay on UO-31 renal amounted to 11.9 µM; in the assay on SNB-19 CNS, 2.95 µM; in the assay with K-562 leukemia, 3.25 µM; in the assay on HCT-15 colon, 9.74 µM.
For the compound `C=C1CC2(OC1=O)C(=O)Nc1ccccc12` (centres undefined), the GI50 with HCT-116 colon is 3.16 µM; in the assay with KM12 colon it was 10.4 µM; in the assay on SNB-75 CNS, 11 µM; in the assay on DU-145 prostate it was 2.54 µM; with CCRF-CEM leukemia it was 2.11 µM; in the assay with HT29 colon it was 3.03 µM. The GI50 is 2.09 µM in the assay on UO-31 renal, 32.9 µM in the assay on SNB-19 CNS, 1.88 µM with K-562 leukemia and 1.51 µM in the assay with HCT-15 colon. Moreover, the TGI in the assay on HCT-116 colon came out at 10.5 µM; in the assay with KM12 colon, 27.2 µM; with SNB-75 CNS, 28.1 µM; with DU-145 prostate, 8.47 µM; in the assay with CCRF-CEM leukemia it was 7.15 µM; in the assay on HT29 colon, 11 µM. In addition, the TGI in the assay with UO-31 renal is 5.79 µM; in the assay with SNB-19 CNS, > 100 µM; in the assay with K-562 leukemia, 10 µM; in the assay with HCT-15 colon it was 3.69 µM.
In the case of `C=C(Br)CNC(=O)CCC(=O)NCC(=C)Br`, the TGI in the assay with HCT-116 colon, in the assay on KM12 colon, with SNB-75 CNS, in the assay on DU-145 prostate, with CCRF-CEM leukemia and in the assay with HT29 colon was > 100 µM each time. Further, the TGI with UO-31 renal, in the assay on SNB-19 CNS, in the assay on K-562 leukemia and with HCT-15 colon was > 100 µM each time.
